According to patent US10252987B2, “Type of antiviral compound” (Institute of Medicinal Biotechnology, Chinese Academy of …, priority 2015, dated 2019):

The compounds below were run on HCV (assay: anti-HCV activity assay in cell culture (HCV RNA by one-step quantitative RT-PCR)). Settings: Hepatitis C virus, Huh7.5, 96 h, compound at 10 μmol/L; Huh7.5 cells infected with HCV virus particles; cultured 96 hrs; HCV RNA in cells vs virus control group; read-out: percent inhibition (%).
Format: cell-based
Method: The assay results of anti-HCV activity of the compound synthesized according to the present invention in cell culture are shown in Table 1, wherein the molecular weight is calculated by ChemBioDraw 12.0 software from the molecular structure of each compound.
100 μL Huh7.5 cells were seeded in 96-well cell culture plate to 1×10^5/mL density, cultured in an incubator at 37° C. under the condition of 5% CO2 and saturated humidity for 6 hrs. Huh7.5 cells were then infected by viral solution containing HCV virus particles, and solutions of compound of the present invention at a concentration of 10 μmol/L liquid were added respectively, cultured for further 96 hrs, and then total RNA was extracted from the cells. Amount of HCV RNA in cells was determined by one-step quantitative RT-PCR, and compared to RNA levels of the virus control group to calculate the inhibition rate of compounds on HCV.

SMILES	inhibition at 10 µM [%]
Cc1ccc(NCc2cc(N3CCNCC3)ccc2C#N)cc1 [Compound 1, 4-(piperazin-1-yl)-2-((p-methylphenylamino)methyl)benzonitrile]	97
COc1ccc(N2CCN(Cc3cc(NCN4CCCCC4)ccc3C#N)CC2)cc1 [VI-2, 4-(((piperidin-1-yl)methyl)amino)-2-(4-(4-methoxyphenyl)piperazin-1-yl)methylbenzonitrile]	62
CN1CCN(c2ccc(C#N)c(CNc3ccc(Br)cc3)c2)CC1 [Compound 42, 2-(((4-bromophenyl)amino)methyl)-4-(4-methylpiperazin-1-yl)benzonitrile]	87
CN1CCN(c2ccc(C#N)c(CN3CCN(c4ccc(N(C)C)cc4)CC3)c2)CC1 [VI-21, 4-(4-methylpiperazin-1-yl)-2-(4-(4-dimethylaminophenyl)piperazin-1-yl)methylbenzonitrile]	65
Cc1ccc(NCc2cc(N3CCCC(N)C3)ccc2C#N)cc1 (stereo not shown) [Compound 6, 4-(3-aminopiperidin-1-yl)-2-(p-methylphenylamino)methylbenzonitrile]	68
CCCN1CCN(c2ccc(C#N)c(CN(C)c3ccc(Oc4ccccc4)cc3)c2)CC1 [Compound 22, 4-(4-propylpiperazin-1-yl)-2-((p-phenoxyphenyl)(methyl)amino)methylbenzonitrile]	86
CN1CCN(c2ccc(C#N)c(CN3CCN(c4ccc(Cl)cc4)CC3)c2)CC1 [VI-9, 4-(4-methylpiperazin-1-yl)-2-(4-(4-chlorophenyl)piperazin-1-yl)methylbenzonitrile]	92
CCCN1CCN(c2ccc(C#N)c(CN(CC)c3ccc(Sc4ccccc4)cc3)n2)CC1 [Compound 41, 2-((4-(phenylthio)phenyl)(ethyl)amino)methyl-6-(4-propylpiperazin-1-yl)-3-cyanopyridine]	57
COc1ccc(N(C)Cc2cc(N3CC(C)NC(C)C3)ccc2C#N)cc1 (stereo not shown) [Compound 25, 4-(3,5-dimethylpiperazin-1-yl)-2-((p-methoxyphenyl)(methyl)amino)methylbenzonitrile]	75
Cc1ccc(N2CCN(Cc3cc(N(C)CN4CCCCC4)ccc3C#N)CC2)cc1 [VI-36, 4-((methyl)((piperidin-1-yl)-methyl)amino)-2-(4-p-methylphenylpiperazin-1-yl)methylbenzonitrile]	91
CCCN(Cc1cc(N2CCN(C)CC2)ccc1C#N)c1ccc(Cl)cc1 [Compound 15, 4-(4-methylpiperazin-1-yl)-2-((p-chlorophenyl)(propyl)amino)methylbenzonitrile]	88
CN(C)CN(C)c1ccc(C#N)c(CN(C)c2ccc(C(C)(C)C)cc2)c1 [Compound 33, 2-((4-tert-butylphenyl)(methyl)amino)methyl-4-(((dimethylamino)methyl)(methyl)amino)benzonitrile]	89
Cc1ccc(NCc2cc(NCCN3CCCCC3)ccc2C#N)cc1 [Compound 28, 4-((2-(piperidin-1-yl)ethyl)amino)-2-(p-methylphenylamino)methylbenzonitrile]	65
COc1ccc(NCc2nc(N(C)CCN(C)C)ccc2C#N)cc1 [Compound 38, 6-((2-(dimethylamino)ethyl)(methyl)amino)-2-((4-methoxyphenyl)amino)methyl-3-cyanopyridine]	70
CN(C)CCN(C)c1ccc(C#N)c(CN2CCN(c3ccc(N4CCCC4)cc3)CC2)c1 [VI-22, 4-((2-(dimethylamino)ethyl)(methyl)amino)-2-(4-(4-(pyrrolidin-1-yl)phenyl)piperazin-1-yl)methylbenzonitrile]	83
COc1ccc(N(C)Cc2cc(N3CCN(c4ccccc4)CC3)ccc2C#N)cc1 [Compound 20, 4-(4-phenylpiperazin-1-yl)-2-((p-methoxyphenyl)(methyl)amino)methylbenzonitrile]	70
CC(C)c1ccc(N2CCN(Cc3cc(N4CCN(C)CC4)ccc3C#N)CC2)cc1 [VI-16, 4-(4-methylpiperazin-1-yl)-2-(4-(4-isopropylphenyl)piperazin-1-yl)methylbenzonitrile]	68
CCCN(Cc1cc(N2CCN(C)CC2)ccc1C#N)c1ccc(C(C)(C)C)cc1 [Compound 17, 4-(4-methylpiperazin-1-yl)-2-((p-tert-butylphenyl)(propyl)amino)methylbenzonitrile]	96
Cc1ccc(N2CCN(Cc3cc(N4CCCC(N)C4)ccc3C#N)CC2)cc1 (stereo not shown) [VI-7, 4-(3-aminopiperidin-1-yl)-2-((4-(4-methylphenyl)piperazin-1-yl)methyl)benzonitrile]	71
COc1ccc(N(C)Cc2cc(N3CCN(C)CC3)ccc2C#N)cc1 [Compound 16, 4-(4-methylpiperazin-1-yl)-2-((p-methoxyphenyl)(methyl)amino)methylbenzonitrile]	84
COc1ccc(N2CCN(Cc3cc(N4CCNCC4)ccc3C#N)CC2)cc1 [VI-5, 4-(piperazin-1-yl)-2-(4-(4-methoxyphenyl)piperazin-1-yl)methylbenzonitrile]	79
Cc1ccc(N(C)Cc2cc(N3CCN(C)CC3)ccc2C#N)cc1 [Compound 14, 4-(4-methylpiperazin-1-yl)-2-((p-methylphenyl)(methyl)amino)methylbenzonitrile]	97
C=CCN1CCN(c2ccc(C#N)c(CN(C)c3ccc(C(C)(C)C)cc3)c2)CC1 [Compound 19, 4-(4-allylpiperazin-1-yl)-2-((p-tert-butylphenyl)(methyl)amino)methylbenzonitrile]	86
CCc1ccc(N2CCN(Cc3cc(N4CCN(C)CC4)ccc3C#N)CC2)cc1 [VI-14, 4-(4-methylpiperazin-1-yl)-2-(4-(4-ethylphenyl)piperazin-1-yl)methylbenzonitrile]	88
CN1CCN(c2ccc(C#N)c(CNc3ccc(Cl)cc3)c2)CC1 [Compound 8, 4-(4-methylpiperazin-1-yl)-2-(p-chlorophenylamino)methylbenzonitrile]	91
CCCN1CCN(c2ccc(C#N)c(CNc3ccc(Sc4ccccc4)cc3)c2)CC1 [Compound 23, 4-(4-propylpiperazin-1-yl)-2-(p-(phenylthio)phenylamino)methylbenzonitrile]	78
CN1CCN(c2ccc(C#N)c(CN3CCN(c4ccc(C(C)(C)C)cc4)CC3)c2)CC1 [VI-13, 4-(4-methylpiperazin-1-yl)-2-(4-(4-tert-butylphenyl)piperazin-1-yl)methylbenzonitrile]	90
CNc1ccc(N2CCN(Cc3cc(N4CCN(C)CC4)ccc3C#N)CC2)cc1 [VI-20, 4-(4-methylpiperazin-1-yl)-2-(4-(4-methylaminophenyl)piperazin-1-yl)methylbenzonitrile]	78
CCCN1CCN(c2ccc(C#N)c(CNc3ccccc3)c2)CC1 [Compound 18, 4-(4-propylpiperazin-1-yl)-2-(phenylamino)methylbenzonitrile]	75
N#Cc1ccc(NCCN2CCCCC2)nc1CNCCCc1ccc(C2CCCC2)cc1 [Compound 34, 2-(((4-cyclopentylphenyl)propylamino)methyl)-6-(2-(piperidin-1-yl)ethyl)amino-3-cyanopyridine]	76

Same assay, conditions: compound at 10 μmol/L; Huh7.5 cells infected with HCV virus particles; cultured 96 hrs; HCV RNA in cells vs virus control group

SMILES	percent inhibition (%)
CN(C)CCN(C)c1ccc(C#N)c(CN2CCN(c3ccc(OC(F)(F)F)cc3)CC2)c1 [VI-47, 4-(N,N′,N′-trimethyl-1,2-ethylenediamin-1-yl)-2-(4-trifluoromethoxyphenylpiperazin-1-yl)methylbenzonitrile]	93
COc1cc(NCc2nc(N(C)CCN(C)C)ccc2C#N)cc(OC)c1 [Compound 39]	75
CN(C)CCCN(C)c1ccc(C#N)c(CN2CCN(c3ccc(C4CCCCC4)cc3)CC2)c1 [VI-32, 4-(N,N′,N′-trimethyl1,3-propanediamin-1-yl)-2-(4-p-cyclohexylphenylpiperazin-1-yl)methylbenzonitrile]	80
COc1ccc(NCc2cc(NCCN(C)C)ccc2C#N)cc1 [Compound 30, 4-(N,N-dimethyl-1,3-ethylenediamin-1-yl)-2-(p-methoxyphenylamino)methylbenzonitrile]	49
CN(C)CCN(C)c1ccc(C#N)c(CN2CCN(c3ccc(Cl)cc3)CC2)c1 [VI-35, 4-(N,N′,N′-trimethyl-1,2-ethylenediamin-1-yl)-2-(4-p-chlorophenylpiperazin-1-yl)methylbenzonitrile]	99
N#Cc1ccc(N2CCNCC2)cc1CN1CCN(c2ccccc2)CC1 [VI-8, 4-(piperazin-1-yl)-2-(4-(4-phenyl)piperazin-1-yl)methylbenzonitrile]	82
COc1ccc(N2CCN(Cc3cc(NCCN(C)C)ccc3C#N)CC2)cc1 [VI-1]	99
Cc1ccc(N2CCN(Cc3cc(NCCCN(C)C)ccc3C#N)CC2)cc1 [VI-26, 4-(N′,N′-dimethyl-1,3-propanediamin-1-yl)-2-(4-p-methylphenylpiperazin-1-yl)methylbenzonitrile]	58
COc1ccc(N2CCN(Cc3cc(N4C(C)CNCC4C)ccc3C#N)CC2)cc1 (stereo not shown) [VI-25]	67
CN(C)CCCNc1ccc(C#N)c(CNc2ccc(Cl)cc2)c1 [Compound 29, 4-(N,N-dimethyl-1,3-propanediamin-1-yl)-2-(p-chlorophenylamino)methylbenzonitrile]	80
